Experimental data reported in patent publication US7504497B2, “Orally bioavailable compounds and methods for inhibiting platelet aggregation” (Inspire Pharmaceuticals, Inc., priority 2005, dated 2009).
pIC50: −log10 of the molar value. Like-named read-outs stand apart in the source and are kept apart here. Values belong to the compound of their own block, whether it stands above or below them.

What was measured:
[1] = test system: washed human platelets; experiment: Inhibition of ADP-induced platelet aggregation in washed human platelets; assay type: cell-based; conditions: for % inhibition of ADP-induced platelet aggregation at fixed concentration: antagonist at 0.3 μM, ADP typically 1-5 μM; for pIC50: ADP agonist challenge typically 1-5 μM, average of two experiments or more
Procedure: Isolation of Platelets: Human blood is obtained from informed healthy adult volunteers. Blood is collected into one-sixth volume of acid/citrate/dextrose (ACD) buffer (85 mM sodium citrate, 65 mM citric acid, and 110 mM glucose). Collected blood is placed in a water bath at 37° C. for 30 minutes. Blood is then centrifuged at 275×g for 16 minutes at room temperature and the platelet-rich plasma is removed and centrifuged at 2200×g for 13 minutes at room temperature. The platelet pellet is resuspended in 40 mL of HEPES-buffered Tyrode's solution (137 mM NaCl, 2.7 mM KCl, 1 mM MgCl2, 2 mM CaCl2, 12 mM NaHCO3, 0.36 mM NaH2PO4, 5.5 mM glucose, 5 mM HEPES pH 7.4, 0.35% bovine serum albumin or 0.35% human serum albumin) containing 10 U/mL heparin and 5 μM (final concentration) prostaglandin I2 (PGI2). The platelet suspension is incubated in a 37° C. water bath for 10 minutes and then 5 μM (final conc.) PGI2 is added just before centrifugation at 1900×g for 8 minutes. The resulting pellet is resuspended in 40 mL of HEPES-buffered Tyrode's solution containing 5 μM (final concentration) PGI2 and then is incubated for 10 minutes in a 37° C. water bath. A small aliquot (500 μL) of the platelet suspension is removed for platelet counting. Prior to centrifugation 5 μM (final concentration) PGI2 is added to the suspension and then the suspension is centrifuged at 1900×g for 8 minutes. The pellet is resuspended at a density of 5×10^8 cells/mL in HEPES-buffered Tyrode's solution containing 0.05 U/mL apyrase. Aggregation Studies: ADP-induced platelet aggregation is determined by measuring the transmission of light through a 0.5 ml suspension of stirred (1000 rpm) washed platelets in a lumi-aggregometer at 37° C. (Chrono-Log Corp. Havertown, Pa.). The baseline of the instrument is set using 0.5 ml of Hepes-buffered Tyrode's solution. Prior to aggregation measurements, the platelet suspension is supplemented with 1 mg/ml fibrinogen. Platelet aggregation is initiated by the addition of indicated concentrations of ADP or other agonists, and the light transmission is continuously recorded for at least 8 min. When inhibitors of platelet aggregation are tested, platelets are incubated for 2 min in the presence of indicated concentrations of inhibitor before addition of ADP or other agonists, and the response is recorded for at least 8 min. The potency of agonists and inhibitors of platelet aggregation is calculated from both the rate of aggregation and the maximal extent of aggregation obtained for each determination by fitting the data to a four-parameter logistic equation using the GraphPad software package (GraphPad Corp. San Diego, Calif.).
IC50 values represent the concentration of antagonist necessary to inhibit by 50% the aggregation elicited by a given concentration of ADP.
The agonist challenge (ADP) was typically in the range of 1-5 μM. Data are presented in μM and are from the average of two experiments or more.

[2] = Oral bioavailability (%F) following oral vs intravenous administration in rats; assay type: in vivo, male Sprague-Dawley rats; conditions: rat; for bioavailability: male, Sprague-Dawley, plasma, po
Procedure: These compounds were administered intravenously and orally to compare the extent of absorption by the oral route to the intravenous route and evaluate their ability to inhibit platelet aggregation in vivo. The following brief protocol describes the experiment methodology.
While anesthetized by an inhaled anesthetic, male Sprague-Dawley rats were surgically cannulated in the jugular vein for blood sample collection in order to assess systemic exposure of the compound after oral or intravenous administration and platelet aggregation. For the oral studies, compounds were administered as suspensions of the free acid or sodium salt forms, or as solutions of the sodium salt forms. Animals were allowed 48 hours to recover prior to dose administration.
A blood samples was taken immediately prior to compound administration. This sample was used to assess the baseline platelet aggregation and potential drug interference in the LC/MS/MS analysis. Compound was administered by either oral gavage or tail vein and blood samples were withdrawn for plasma analysis at up to 12 time points ranging from 5 min to 24 hours following compound administration. LC/MS/MS was used to measure the amount of compound in the plasma after both routes of administration and the plasma exposure was compared between the oral and IV routes (%F). %F is the % of the administered dose that is absorbed after oral administration. […] The in vivo platelet aggregation data that was acquired at similar time points was then compared to the plasma concentration and a calculation of the concentration needed to inhibit platelet aggregation was made.
The bioavailability of certain compounds of the present invention was determined following oral administration in rats, according to the protocol of Example 5. The compounds were administered as either a suspension of the free acid forms, a suspension of the sodium salt forms, or as a solution of the sodium salt forms.

[3] = Homo sapiens, Platelet, read-out: PLATELET DATA IC50 Washed Platelets, washed human platelets
[4] = read-out: PLATELET DATA IC50 Washed Platelets, washed human platelets
[5] = administered as solution of the sodium salt form, read-out: % F, salt solution
[6] = administered as suspension of the free acid form, read-out: % F, free acid suspension
[7] = administered as suspension of the sodium salt form, read-out: % F, salt suspension

Compound: CCNC(=O)Nc1ncnc2c1ncn2C1OC(COc2c(F)cccc2C(=O)O)C2O[C@H](c3ccc(F)cc3)OC21 (some centres unmarked) [Compound 25]
% inhibition of ADP-induced platelet aggregation at fixed concentration ([1]; washed human platelets): 46% inh. @ 0.3 μM

Compound: CCNC(=O)Nc1ncnc2c1ncn2C1OC(COc2ccc(F)cc2C(=O)O)C2O[C@H](/C=C/c3ccccc3)OC21 (some centres unmarked) [Compound 4]
pIC50 [1, 3]: 6.98

Compound: CCNC(=O)Nc1ncnc2c1ncn2C1OC(COc2ccccc2CC(=O)O)C2O[C@H](/C=C/c3ccccc3)OC21 (some centres unmarked) [Compound 6]
pIC50 [1, 3]: 6.53

Compound: CCNC(=O)Nc1ncnc2c1ncn2C1OC(COc2cc(OC)ccc2C(=O)O)C2O[C@H](/C=C/c3ccccc3)OC21 (some centres unmarked) [Compound 3]
pIC50 [1, 3]: 6.39

Compound: CCNC(=O)Nc1ncnc2c1ncn2C1OC(COc2ccc(C)cc2C(=O)O)C2O[C@H](/C=C/c3ccccc3)OC21 (some centres unmarked) [Compound 5]
pIC50 [1, 3]: 6.27

Compound: CCCNC(=O)Nc1ncnc2c1ncn2C1OC(COc2cc(F)ccc2C(=O)O)C2O[C@H](c3ccc(F)cc3)OC21 (some centres unmarked) [Compound 28]
% inhibition of ADP-induced platelet aggregation at fixed concentration ([1]; washed human platelets): 64% inh. @ 0.3 μM

Compound: COc1cccc(C(=O)O)c1OCC1OC(n2cnc3c(NC(=O)NC4CC4)ncnc32)C2O[C@@H](c3ccc(F)cc3)OC12 (some centres unmarked) [Compound 33]
% inhibition of ADP-induced platelet aggregation at fixed concentration ([1]; washed human platelets): 56% inh. @ 0.3 μM

Compound: O=C(Nc1ncnc2c1ncn2C1OC(COc2cc(F)ccc2C(=O)O)C2O[C@H](c3ccc(F)cc3)OC21)NC1CC1 (some centres unmarked) [Compound 35]
% inhibition of ADP-induced platelet aggregation at fixed concentration ([1]; washed human platelets): 61% inh. @ 0.3 μM

Compound: CCNC(=O)Nc1ncnc2c1ncn2C1OC(COc2ccccc2C(=O)O)C2O[C@H](/C=C/c3ccccc3)OC21 (some centres unmarked) [Compound 1]
pIC50 [1, 3]: 6.50
bioavailability [2, 5]: ~39%
bioavailability [2, 6]: 8 to 13%
bioavailability following oral administration (in words) [2]: high bioavailability
% F, free acid suspension ([2]; administered as suspension of the free acid form): 8.7-13.1%

Compound: CCNC(=O)Nc1ncnc2c1ncn2C1OC(COc2ccc(OC)cc2C(=O)O)C2O[C@H](c3ccc(F)cc3)OC21 (some centres unmarked) [Compound 34]
% inhibition of ADP-induced platelet aggregation at fixed concentration ([1]; washed human platelets): 52% inh. @ 0.3 μM

Compound: CCNC(=O)Nc1ncnc2c1ncn2C1OC(COc2c(OC)cccc2C(=O)O)C2O[C@H](/C=C/c3ccccc3)OC21 (some centres unmarked) [Compound 2]
pIC50 [1, 3]: 6.55

Compound: CCCNC(=O)Nc1ncnc2c1ncn2C1OC(COc2cccc(F)c2C(=O)O)C2O[C@H](c3ccc(F)cc3)OC21 (some centres unmarked) [Compound 30]
% inhibition of ADP-induced platelet aggregation at fixed concentration ([1]; washed human platelets): 56% inh. @ 0.3 μM

Compound: CCNC(=O)Nc1ncnc2c1ncn2C1OC(COc2cc(F)ccc2C(=O)O)C2O[C@H](/C=C/c3ccccc3)OC21 (some centres unmarked) [Compound 7]
pIC50 [1, 3]: 6.41

More lines, now with the values ahead:

pIC50 [1, 3]: 6.24
Compound: CCNC(=O)Nc1ncnc2c1ncn2C1OC(COc2ccccc2CC(=O)O)C2OC(c3ccc(F)cc3)OC21 (centres unmarked) [Compound 11]

pIC50 [1, 3]: 6.87
Compound: CCNC(=O)Nc1ncnc2c1ncn2C1OC(COc2cccc(F)c2C(=O)O)C2OC(/C=C/c3ccccc3)OC21 (centres unmarked) [Compound 8]

pIC50 [1, 3]: > 7.00
pIC50 [1, 4]: 7.00
Compound: COc1ccc(C(=O)O)c(OCC2OC(n3cnc4c(NC(=O)NC5CC5)ncnc43)C3O[C@@H](c4ccc(F)cc4)OC23)c1 (some centres unmarked) [Compound 22]

pIC50 [1, 3]: > 7.00
pIC50 [1, 4]: 7.05
Compound: CCNC(=O)Nc1ncnc2c1ncn2C1OC(COc2ccc(F)cc2C(=O)O)C2O[C@H](c3ccc(F)cc3)OC21 (some centres unmarked) [Compound 13]

pIC50 [1, 3]: > 7.00
pIC50 [1, 4]: 7.06
Compound: CCCCNC(=O)Nc1ncnc2c1ncn2C1OC(COc2cc(OC)ccc2C(=O)O)C2O[C@H](c3ccc(F)cc3)OC21 (some centres unmarked) [Compound 21]

pIC50 [1, 3]: 6.72
bioavailability [2, 5]: ~53%
bioavailability [2, 6]: 14.3 to 14.6%
bioavailability [2, 7]: 29.5 to 29.9%
bioavailability following oral administration (in words) [2]: high bioavailability
% F, salt solution ([2]; administered as solution of the sodium salt form): 52.5-53.4%
Compound: CCCNC(=O)Nc1ncnc2c1ncn2C1OC(COc2ccccc2C(=O)O)C2O[C@H](c3ccc(F)cc3)OC21 (some centres unmarked) [Compound 15]

pIC50 [1, 3]: 6.13
Compound: CCNC(=O)Nc1ncnc2c1ncn2C1OC(COc2ccc(OC)cc2C(=O)O)C2O[C@H](/C=C/c3ccccc3)OC21 (some centres unmarked) [Compound 9]

pIC50 [1, 3]: 6.70
Compound: CCNC(=O)Nc1ncnc2c1ncn2C1OC(COc2ccccc2C(=O)O)C2O[C@H](c3ccc(F)cc3)OC21 (some centres unmarked) [Compound 12]

pIC50 [1, 3]: > 7.00
pIC50 [1, 4]: 7.21
Compound: CCCCNC(=O)Nc1ncnc2c1ncn2C1OC(COc2c(OC)cccc2C(=O)O)C2O[C@H](c3ccc(F)cc3)OC21 (some centres unmarked) [Compound 19]

pIC50 [1, 3]: > 7.00
pIC50 [1, 4]: 7.02
bioavailability [2, 5]: ~44%
bioavailability [2, 7]: 21.5 to 22.1%
bioavailability following oral administration (in words) [2]: high bioavailability
Compound: CCNC(=O)Nc1ncnc2c1ncn2C1OC(COc2cc(OC)ccc2C(=O)O)C2OC(c3ccc(F)cc3)OC21 (centres unmarked) [Compound 14, 2-[6-[6-(3-Ethyl-ureido)-purin-9-yl]-2-(4-fluoro-phenyl)-tetrahydro-furo[3,4-d][1,3]dioxol-4-ylmethoxyl]-4-methoxy-benzoic acid]

pIC50 [1, 3]: > 7.00
pIC50 [1, 4]: 7.00
Compound: COc1ccc(C(=O)O)c(OCC2OC(n3cnc4c(NC(=O)NCC5CC5)ncnc43)C3O[C@@H](c4ccc(F)cc4)OC23)c1 (some centres unmarked) [Compound 23]

pIC50 [1, 3]: > 7.00
pIC50 [1, 4]: 7.04
Compound: CCCNC(=O)Nc1ncnc2c1ncn2C1OC(COc2cc(OC)ccc2C(=O)O)C2O[C@H](c3ccc(F)cc3)OC21 (some centres unmarked) [Compound 20]
